The test system of assay [1] is pSUPER-CFP-CONTROL transfected HeLa cells. Briefly: Clonogenic survival, control transfected HeLa cells. In kind it is cell-based, human. The settings on record: constant exposure 12-14 days, read-out: SF50 (the source's name). The source says: (§1) Clonogenic survival curves of transfected HeLa cells under constant exposure to a range of concentrations of PARP inhibitor (KU0058684) for 12-14 days. […] SF50 for pSUPER-CFP-CONTROL transfected cells is >1×10^−5 M and is 1×10^−6 M for pSUPER-CFP-17/19/23 transfected cells.
(§2) HeLa cells were transfected using FuGene (Roche, USA) according to the manufacturers instructions. For clonogenic survival assays, cells were co-transfected in 6 well plates with pSUPER and a vector expressing blasticidin resistance (pEF-Bsd, Invitrogen, USA) at a ratio of 10:1 (pSUPER: pEF-Bsd). Twenty-four hours after transfection, cells were plated into replica plates and this was followed by treatment with PARP inhibitors and blasticidin 48 hours post transfection.

In assay [2] the test system is Brca2 deficient VC8 cells. Briefly: Neutral comet assay, Brca2 deficient VC8 cells. The settings on record: 30-hour exposure to 1 μM. In kind it is cell-based, chinese hamster. The method, then:
VC8 and VC8-BAC cells were plated 24 hours prior to treatment with 1 μM KU0058684 for 30 hours. All further work was carried out in the dark. Cells were washed with and scraped into PBS prior to Comet analysis as described (Lemay and Wood, 1999). Cells suspended in LMP agarose (0.5% in PBS) were spread onto Comet slides (Trevigen, Gaithersburg) and placed at 4 C until set, prior to lysis for 45 mins in 2.5M NaCl, 100 mM EDTA, 10 mM Tris Base, 1% sodium lauryl sarcosinate, 0.01% Triton X-100. Slides were transferred to TBE for 5 mins prior to electrophoresis at 18V for 15 mins. Slides were then fixed in 100% ethanol for 5 mins and air dried before the addition of SYBR green dye and visualisation by epifluorescence using fluorescien filters (Nikon). Comets were analysed using the Comet software module of the Lucia G imaging package as supplied by Nikon. 50 comets per data point were examined for each of three independent experiments and the mean tail moment calculated.

Assay [3] deals with Brca1 or Brca2 deficient cells. Put plainly: Rad51 focus formation, Brca1 or Brca2 deficient ES cells. It is filed as cell-based, mouse. The note with it: 48 hours. Here is the method:
ES cells were cultured for 48 h in various concentrations of PARP inhibitor fixed in 4% paraformaldehyde in PBS and permeabilised with 0.2% Triton X100 in PBS. Cells were stained with a 1:100 dilution of rabbit anti-Rad51 ployclonal antibody (Ab 551922, BD-Pharmingen, Oxford, UK). After washing, the primary antibody was visualised with Alexa Fluor-555 goat anti-rabbit IgG (Alexa) and nuclei with TO-PRO-3 iodide (Molecular Probes). Rad51 foci and γH2Ax foci were visualised with and quantified using a Leica TCS-SP2 confocal microscope.
Wild-type, and Brca1 and Brca2 defective ES cells were exposed to differing concentrations of KU0058684 for 48 hours. Cells were then fixed and stained for RAD51 foci as described by Tarsounas (Tarsounas M et al Oncogene. 2003 22(8): 1115-23).

For assay [4], the system named is wild-type, Fanca−/−, Fancc−/− and Fanca−/−c−/− cells. Put plainly: γH2AX foci formation in wild-type and FA fibroblasts. The note with it: 48 hours exposure. In kind it is cell-based, mouse.
Another assay addresses PARP-1 (Homo sapiens, UniProt P09874). Briefly: PARP-1 enzyme activity inhibition. In kind it is biochemical. The settings on record: read-out: IC50 against PARP-1 enzyme activity.
Assay [5] has as its system Brca1 and Brca2 deficient cells. Put plainly: Mitotic chromosome analysis. In kind it is cell-based, mouse. The settings on record: 24 hours treatment. Here is the method: ES cells were seeded onto gelatin, treated for 24 hours with chemical inhibitors, followed by colcemid treatment for 1 hour. Cells were harvested, fixed, dropped onto slides, dried and stained with DAPI before chromosome analysis under a microscope.

The next assay deals with MCF7-3.23 cells. Briefly: Clonal survival, BRCA1 silenced MCF7-3.23 cells. In kind it is cell-based, human. The source says: Log concentration of inhibitor is plotted against log surviving fraction of cells.
The MCF7 scrambled and MCF7-3.23 cell lines were generated by stable transfection of MCF7 mammary adenocarcinoma cells with gene specific pSUPER constructs. Gene specific pSUPER constructs were generated expressing the following RNAi target sequences: (i) human BRCA1 (SEQ ID NO:3) 5r-[…]-3′ (ii) scrambled control 5′-(SEQ ID NO:4) […]-3′. A 1.8 kb fragment containing the human EF1a promoter and the blasticidin resistance gene (bsd) was subcloned from pEFBsd (Invitrogen) into the SapI site of the resultant pSUPER constructs, generated pSUPER-Bsd-BRCA1 and pSUPER-Bsd-scrambled. MCF7 cells were transfected with these plasmids using FuGene6 (Roche) according to the manufacturers instructions. After selection in blasticidin, resistant clones were assessed by real time PCR for silencing of BRCA1 mRNA (Egawa et al Oncology. 2001; 61(4): 293-8; Egawa et al Int J. Cancer. 2001 Jul. 20; 95(4):255-9). Clones with reduced levels of BRCA1 mRNA were cultured (under blasticidin selection) over 8 passages and the real-time assay repeated.

Assay [6] concerns Fancd2−/−, Fanca−/−, Fancc−/− and Fanca−/−c−/− fibroblasts. Put plainly: Clonogenic survival, Fanconi anaemia mouse fibroblasts. It is filed as cell-based. The settings on record: continuous exposure 12-14 days. Here is the method:
Mouse fibroblasts from wild-type, Fancd2^−/−, Fanca^−/−, Fancc^−/− and Fanca^−/−c^−/− animals were obtained from the Fanconi Anaemia Cell Repository, Oregon Health and Science University. These cells were maintained in DMEM, supplemented with FCS (10% v/v), glutamine and antibiotics. RAD54 and RAD52 Embryonic Stem (ES) cells were grown in DMEM, supplemented with FCS (15% v/v), glutamine, antibiotics, non-essential amino acids, 2-mercaptoethanol and Leukemia inhibitory Factor. HeLa cells (CCL-2) were obtained from ATCC (USA) and were maintained in DMEM, supplemented with FCS (10% v/v), glutamine and antibiotics.
(§3) For measurement of sensitivity to chemical inhibitors, cell cultures e.g. ES cells or mouse embryonic fibroblasts, in exponential growth were trypsinised and seeded at various densities in 6-well plates onto confluent monolayer of Mitomycin C (MMC) inactivated mouse embryonic fibroblasts and, where appropriate, treated with inhibitors after 18 h. For continuous exposure, cells were re-fed every 4 days with fresh medium and inhibitor. For timed exposures, inhibitor was added for the specified period then cells were washed and re-fed with fresh medium. After 10-14 days, cells were washed with PBS, fixed in methanol and stained with crystal violet. Colonies containing greater than approximately 50 cells were counted. Experiments were performed at least three times in triplicate.

For assay [7], the system named is RAD51 siRNA transfected HeLa cells. Put plainly: Clonogenic survival, HeLa cells with RAD51 RNAi silencing. It is filed as cell-based, human. The settings on record: pSUPER-CFP-17/19/23 transfected HeLa cells, constant exposure 12-14 days; read-out: SF50 (the source's name).
From the text: as §1, §2

In the next assay the test system is Brca2 deficient ES cells. Put plainly: Clonogenic assay, continuous exposure, Brca2 deficient ES cells. In kind it is cell-based, mouse. Here is the method:
as §3

Sequence of PARP-1 (P09874 whole entry): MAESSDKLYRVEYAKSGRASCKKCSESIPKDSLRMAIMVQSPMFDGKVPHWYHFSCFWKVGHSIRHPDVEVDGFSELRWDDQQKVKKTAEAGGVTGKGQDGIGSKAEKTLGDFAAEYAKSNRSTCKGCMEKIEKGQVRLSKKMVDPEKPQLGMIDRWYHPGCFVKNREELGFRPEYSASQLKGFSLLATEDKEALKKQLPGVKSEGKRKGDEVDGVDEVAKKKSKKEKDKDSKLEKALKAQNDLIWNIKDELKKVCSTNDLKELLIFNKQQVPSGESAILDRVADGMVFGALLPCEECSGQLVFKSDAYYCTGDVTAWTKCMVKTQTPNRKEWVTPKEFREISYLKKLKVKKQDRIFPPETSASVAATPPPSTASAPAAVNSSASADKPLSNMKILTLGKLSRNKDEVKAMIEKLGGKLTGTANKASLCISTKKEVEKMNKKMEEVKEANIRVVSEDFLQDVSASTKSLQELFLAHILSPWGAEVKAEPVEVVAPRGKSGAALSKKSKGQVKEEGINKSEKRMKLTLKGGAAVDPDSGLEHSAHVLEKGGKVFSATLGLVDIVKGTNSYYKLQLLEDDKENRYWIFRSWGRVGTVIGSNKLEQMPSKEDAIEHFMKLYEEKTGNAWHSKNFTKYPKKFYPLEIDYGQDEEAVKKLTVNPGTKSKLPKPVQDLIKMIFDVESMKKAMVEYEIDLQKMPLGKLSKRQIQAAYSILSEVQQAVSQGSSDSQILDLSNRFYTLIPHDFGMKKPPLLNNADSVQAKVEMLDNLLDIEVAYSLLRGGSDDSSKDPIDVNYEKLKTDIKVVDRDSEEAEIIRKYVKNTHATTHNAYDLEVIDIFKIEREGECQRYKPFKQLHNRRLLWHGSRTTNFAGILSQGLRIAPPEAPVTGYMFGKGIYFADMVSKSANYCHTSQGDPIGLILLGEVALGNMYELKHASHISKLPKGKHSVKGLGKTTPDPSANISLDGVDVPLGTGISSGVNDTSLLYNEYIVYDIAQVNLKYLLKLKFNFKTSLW
Method for PARP-1: Chemical inhibitors were dissolved in DMSO at 10 mM and stored at −20° C. in the dark.

`O=C1CCC(=O)N1c1cc(Cc2n[nH]c(=O)c3ccccc23)ccc1F` [KU0058684]: the IC50 in [1] was over 10000 nM; on PARP-1, 3.2 nM; in [7], 1000 nM; in the assay on Brca2 deficient ES cells (Brca2 deficient ES cells, continuous exposure, read-out: SF50 (dosage at which 50% of cells survived)), 15 nM. Moreover, in assay [2], the “increase in the tail moment” value is given as 4.7 fold. Also, the Rad51 foci formation result in assay [3] is “no foci were induced”. For the same compound, in [4], the γH2AX foci result was “induction of γH2AX foci in all cells”. The mitotic chromosome aberrations result in assay [5] is “frequent major aberrations”. Moreover, in the assay on MCF7-3.23 cells, the “sensitivity of MCF7-3.23 cells compared with MCF7-scrambled cells” value is “significantly more sensitive”. In addition, the “sensitivity (clonal survival)” value with MCF7-3.23 cells (MCF7-3.23, continuous exposure 12-14 days) was “both cell lines were sensitive”. In addition, in assay [6], the “sensitivity of FA gene deficient fibroblasts compared to wild-type cells” value is “results in sensitivity”. Further, the “enhanced sensitivity compared to wild-type” value with Brca2 deficient ES cells (Brca2 mutant cells vs wild-type) came out at 133 fold. In addition, in the assay with Brca2 deficient ES cells (clonogenic assay), the “sensitivity of Brca2 deficient cells compared to otherwise isogenic cells” value was “extremely sensitive”.

The values are drawn from patent publication US8143241B2, “DNA damage repair inhibitors for treatment of cancer” (Kudos Pharmaceuticals Limited, priority 2003, dated 2012).
